Source: patent US20260256792A1, “TREATMENT OF CHRONIC SPONTANEOUS URTICARIA BY ADMINISTERING (R)-2-[3-[4-AMINO-3-(2-FLUORO-4-PHENOXY-PHENYL)PYRAZOLO[3,4-D]PYRIMIDIN-1-YL]PIPERIDINE-1-CARBONYL]-4-METHYL-4-[4-(OXETAN-3-YL)PIPERAZIN-1-YL]PENT-2-ENENITRILE” (priority 2023, published 2026)

Tested on: moderate-to-severe chronic spontaneous urticaria (CSU)
Assay: Phase 2 CSU study: urticaria activity score over 7 days (UAS7)
Format: in vivo, human
Settings: Omalizumab-naïve
From the text: The study comprises a 12 week, randomized, double-blind, placebo-controlled, multi-center, dose-ranging efficacy and safety phase, followed by a 40 week open label extension (OLE) phase (see FIG. 1). The study consists of three phases and an optional OLE phase. […] Clinically, CSU is characterized by the spontaneous and recurrent appearance of pruritic hives. The proposed primary endpoints were the UAS7 at Week 12 in EU and EU reference countries and the ISS7 in the US. Regardless of where a participant was from, all assessments were the same. The UAS7 score is a composite score containing both the HSS7 and the ISS7. This allowed a global assessment of the two key components of urticaria: hives and itch. […] The UAS is a validated PRO measure. […] The daily UAS scores range from 0 to 6 point/day. […] Patients were to complete the UAS using the e-diary. […] The following secondary endpoints were to be analyzed using the same approach as for the primary endpoint: • Change from baseline in UAS7 at Week 4 • Change from baseline in UAS7 at Week 12 (for US and US reference countries) • Change from baseline in ISS7 at Week 12 (except US and US reference countries) • Change from baseline in HSS7 at Week 12 The following responder secondary endpoints were to be analyzed using the Cochran-Mantel-Haenszel test adjusted by region: • Proportion of participants with UAS7<6 at Week 12 • Proportion of participants with UAS7=0 at Week 12 Participants who received selected prohibited medications and/or rescue medications were to be considered as non-responders for time points after the medication usage. For other participants, all available data including those collected during the off-treatment period were to be used to determine the responder/non-responder status. Missing data were to be considered as non-responders.

CC(C)(C=C(C#N)C(=O)N1CCC[C@@H](n2nc(-c3ccc(Oc4ccccc4)cc3F)c3c(N)ncnc32)C1)N1CCN(C2COC2)CC1 [rilzabrutinib, (R)-2-[3-[4-amino-3-(2-fluoro-4-phenoxy-phenyl)pyrazolo[3,4-d]pyrimidin-1-yl]piperidine-1-carbonyl]-4-methyl-4-[4-(oxetan-3-yl)piperazin-1-yl]pent-2-enenitrile]
Imputed non-responder n (%), UAS7 ≤6 (400 mg QPM, Week 8): 7 (18.9) n (%)
Non-responder n (%), UAS7 = 0 (400 mg QPM, Week 8): 36 (97.3) n (%)
Non-responder n (%), UAS7 ≤6 (400 mg QPM, Week 8): 34 (91.9) n (%)
OR for rilzabrutinib vs. placebo, UAS7 = 0 (400 mg QPM, Week 8): 0.477
RRD (%) for rilzabrutinib vs. placebo, UAS7 = 0 (400 mg QPM, Week 8): −2.7 %
RRD (%) for rilzabrutinib vs. placebo, UAS7 ≤6 (400 mg QPM, Week 8): −8.4%
Responder n (%), UAS7 = 0 (400 mg QPM, Week 8): 1 (2.7) n (%)
Responder n (%), UAS7 ≤6 (400 mg QPM, Week 8): 3 (8.1) n (%)
Imputed non-responder n (%), UAS7 = 0 (400 mg QPM, Week 9): 6 (16.2) n (%)
Imputed non-responder n (%), UAS7 ≤6 (400 mg QPM, Week 9): 6 (16.2) n (%)
Non-responder n (%), UAS7 = 0 (400 mg QPM, Week 9): 36 (97.3) n (%)
Non-responder n (%), UAS7 ≤6 (400 mg QPM, Week 9): 34 (91.9) n (%)
OR for rilzabrutinib vs. placebo, UAS7 = 0 (400 mg QPM, Week 9): 0.305
OR for rilzabrutinib vs. placebo, UAS7 ≤6 (400 mg QPM, Week 9): 0.715
RRD (%) for rilzabrutinib vs. placebo, UAS7 = 0 (400 mg QPM, Week 9): −5.6 %
RRD (%) for rilzabrutinib vs. placebo, UAS7 ≤6 (400 mg QPM, Week 9): −3.0%
Responder n (%), UAS7 = 0 (400 mg QPM, Week 9): 1 (2.7) n (%)
Responder n (%), UAS7 ≤6 (400 mg QPM, Week 9): 3 (8.1) n (%)
Imputed non-responder n (%), UAS7 = 0 (400 mg QPM, Week 10): 6 (16.2) n (%)
Imputed non-responder n (%), UAS7 ≤6 (400 mg QPM, Week 10): 6 (16.2) n (%)
Non-responder n (%), UAS7 = 0 (400 mg QPM, Week 10): 36 (97.3) n (%)
Non-responder n (%), UAS7 ≤6 (400 mg QPM, Week 10): 35 (94.6) n (%)
OR for rilzabrutinib vs. placebo, UAS7 = 0 (400 mg QPM, Week 10): 0.219
OR for rilzabrutinib vs. placebo, UAS7 ≤6 (400 mg QPM, Week 10): 0.357
RRD (%) for rilzabrutinib vs. placebo, UAS7 = 0 (400 mg QPM, Week 10): −8.7 %
RRD (%) for rilzabrutinib vs. placebo, UAS7 ≤6 (400 mg QPM, Week 10): −8.6%
Responder n (%), UAS7 = 0 (400 mg QPM, Week 10): 1 (2.7) n (%)
Responder n (%), UAS7 ≤6 (400 mg QPM, Week 10): 2 (5.4) n (%)
Imputed non-responder n (%), UAS7 = 0 (400 mg QPM, Week 11): 7 (18.9) n (%)
Imputed non-responder n (%), UAS7 ≤6 (400 mg QPM, Week 11): 7 (18.9) n (%)
Non-responder n (%), UAS7 = 0 (400 mg QPM, Week 11): 35 (94.6) n (%)
Non-responder n (%), UAS7 ≤6 (400 mg QPM, Week 11): 34 (91.9) n (%)
OR for rilzabrutinib vs. placebo, UAS7 = 0 (400 mg QPM, Week 11): 0.986
OR for rilzabrutinib vs. placebo, UAS7 ≤6 (400 mg QPM, Week 11): 0.456
RRD (%) for rilzabrutinib vs. placebo, UAS7 ≤6 (400 mg QPM, Week 11): −8.5%
Responder n (%), UAS7 = 0 (400 mg QPM, Week 11): 2 (5.4) n (%)
Responder n (%), UAS7 ≤6 (400 mg QPM, Week 11): 3 (8.1) n (%)
Imputed non-responder n (%), UAS7 = 0 (400 mg QPM, Week 12): 10 (27.0) n (%)
Imputed non-responder n (%), UAS7 ≤6 (400 mg QPM, Week 12): 10 (27.0) n (%)
Non-responder n (%), UAS7 = 0 (400 mg QPM, Week 12): 36 (97.3) n (%)
Non-responder n (%), UAS7 ≤6 (400 mg QPM, Week 12): 35 (94.6) n (%)
OR for rilzabrutinib vs. placebo, UAS7 = 0 (400 mg QPM, Week 12): 0.219
OR for rilzabrutinib vs. placebo, UAS7 ≤6 (400 mg QPM, Week 12): 0.438
RRD (%) for rilzabrutinib vs. placebo, UAS7 = 0 (400 mg QPM, Week 12): −8.7 %
RRD (%) for rilzabrutinib vs. placebo, UAS7 ≤6 (400 mg QPM, Week 12): −6.1%
Responder n (%), UAS7 = 0 (400 mg QPM, Week 12): 1 (2.7) n (%)
Responder n (%), UAS7 ≤6 (400 mg QPM, Week 12): 2 (5.4) n (%)
Imputed non-responder n (%), UAS7 = 0 (400 mg TID, Week 1): 0 n (%)
Imputed non-responder n (%), UAS7 ≤6 (400 mg TID, Week 1): 0 n (%)
Non-responder n (%), UAS7 = 0 (400 mg TID, Week 1): 34 (97.1) n (%)
Non-responder n (%), UAS7 ≤6 (400 mg TID, Week 1): 27 (77.1) n (%)
OR for rilzabrutinib vs. placebo, UAS7 ≤6 (400 mg TID, Week 1): 4.809
RRD (%) for rilzabrutinib vs. placebo, UAS7 = 0 (400 mg TID, Week 1): 0.2 %
RRD (%) for rilzabrutinib vs. placebo, UAS7 ≤6 (400 mg TID, Week 1): 15.9 %
Responder n (%), UAS7 = 0 (400 mg TID, Week 1): 1 (2.9) n (%)
Responder n (%), UAS7 ≤6 (400 mg TID, Week 1): 8 (22.9) n (%)
Imputed non-responder n (%), UAS7 = 0 (400 mg TID, Week 2): 0 n (%)
Imputed non-responder n (%), UAS7 ≤6 (400 mg TID, Week 2): 0 n (%)
Non-responder n (%), UAS7 = 0 (400 mg TID, Week 2): 31 (88.6) n (%)
Non-responder n (%), UAS7 ≤6 (400 mg TID, Week 2): 27 (77.1) n (%)
OR for rilzabrutinib vs. placebo, UAS7 = 0 (400 mg TID, Week 2): 4.736
OR for rilzabrutinib vs. placebo, UAS7 ≤6 (400 mg TID, Week 2): 4.455
RRD (%) for rilzabrutinib vs. placebo, UAS7 = 0 (400 mg TID, Week 2): 8.3 %
RRD (%) for rilzabrutinib vs. placebo, UAS7 ≤6 (400 mg TID, Week 2): 15.3 %
Responder n (%), UAS7 = 0 (400 mg TID, Week 2): 4 (11.4) n (%)
Responder n (%), UAS7 ≤6 (400 mg TID, Week 2): 8 (22.9) n (%)
